Each structure is given as a SMILES string.

The test has as its system HCT116 colorectal cancer cells. Nature of the test: Cisplatin sensitization assay (96 h MTS cell viability).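 Further: compound concentration needed to lower the IC50 of Cisplatin alone by a set fold.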 Type of test: cell-based. The settings on record: Cisplatin sensitization value. The method in brief: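 The MTS viability read, after 1 h with reagent, followed 96 h of co-treatment at 37° C. in 5% CO2. Both compound and cisplatin were titrated 2-fold from a 10 μM top final concentration in a complete concentration matrix on HCT116 cells. Scores +++/++/+ reflect cisplatin sensitization value ranges.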
Take `Cc1ccn(-c2ccncc2NC(=O)c2c(N)nn3cc(F)cnc23)n1` [I-N-225, 2-amino-6-fluoro-N-(4-(3-methyl-1H-pyrazol-1-yl)pyridin-3-yl)pyrazolo[1,5-a]pyrimidine-3-carboxamide]: the “Cisplatin Sensitization Assay” value was “++ (Compounds with a Cisplatin sensitization value >0.02 μM but <0.2 μM are marked with “++.”)”.

With `CN(C)S(=O)(=O)C1CCN(c2c(F)cncc2NC(=O)c2c(N)nn3cc(F)cnc23)CC1` [I-N-146, 2-amino-N-(4-(4-(N,N-dimethylsulfamoyl)piperidin-1-yl)-5-fluoropyridin-3-yl)-6-fluoropyrazolo[1,5-a]pyrimidine-3-carboxamide], the “Cisplatin Sensitization Assay” value is reported as “+++ (Compounds with a Cisplatin sensitization value of <0.02 μM are marked with “+++.”)”.

For the molecule `COC(=O)C1CCN(c2ccncc2NC(=O)c2c(N)nn3cc(Cl)cnc23)CC1` [I-N-74, methyl-1-(3-(2-amino-6-chloropyrazolo[1,5-a]pyrimidine-3-carboxamido)pyridin-4-yl)piperidine-4-carboxylate], the “Cisplatin Sensitization Assay” value is “+++ (Compounds with a Cisplatin sensitization value of <0.02 μM are marked with “+++.”)”.

With `Nc1nn2cc(F)cnc2c1C(=O)Nc1cnccc1N1CCC(c2ncon2)CC1` [I-N-241, N-(4-(4-(1,2,4-oxadiazol-3-yl)piperidin-1-yl)pyridin-3-yl)-2-amino-6-fluoropyrazolo[1,5-a]pyrimidine-3-carboxamide], the “Cisplatin Sensitization Assay” value is “+++ (Compounds with a Cisplatin sensitization value of <0.02 μM are marked with “+++.”)”.

As for `Nc1nn2cc(F)cnc2c1C(=O)Nc1cnccc1N1CCC2(CC1)COC2` [I-N-226, N-(4-(2-oxa-7-azaspiro[3.5]nonan-7-yl)pyridin-3-yl)-2-amino-6-fluoropyrazolo[1,5-a]pyrimidine-3-carboxamide], the “Cisplatin Sensitization Assay” value is “+++ (Compounds with a Cisplatin sensitization value of <0.02 μM are marked with “+++.”)”.

For the molecule `CC(C)(O)C1CCN(c2ccncc2NC(=O)c2c(N)nn3cc(Cl)cnc23)CC1` [I-N-69, 2-amino-6-chloro-N-(4-(4-(2-hydroxypropan-2-yl)piperidin-1-yl)pyridin-3-yl)pyrazolo[1,5-a]pyrimidine-3-carboxamide], the “Cisplatin Sensitization Assay” value is reported as “+++ (Compounds with a Cisplatin sensitization value of <0.02 μM are marked with “+++.”)”.

Turning to `Nc1nn2cc(Cl)cnc2c1C(=O)Nc1cnccc1N1CCC(N2CC(F)(F)C2)CC1` [I-N-108, 2-amino-6-chloro-N-(4-(4-(3,3-difluoroazetidin-1-yl)piperidin-1-yl)pyridin-3-yl)pyrazolo[1,5-a]pyrimidine-3-carboxamide], the “Cisplatin Sensitization Assay” value is recorded as “+++ (Compounds with a Cisplatin sensitization value of <0.02 μM are marked with “+++.”)”.

Take `Nc1nn2cc(F)cnc2c1C(=O)Nc1cncc(F)c1C1=CCN(C2COC2)CC1` [I-C-12, 2-amino-6-fluoro-N-(5-fluoro-1′-(oxetan-3-yl)-1′,2′,3′,6′-tetrahydro-[4,4′-bipyridin]-3-yl)pyrazolo[1,5-a]pyrimidine-3-carboxamide]: the “Cisplatin Sensitization Assay” value is on record as “+++ (Compounds with a Cisplatin sensitization value of <0.02 μM are marked with “+++.”)”.

Take `Nc1nn2cc(Cl)cnc2c1C(=O)Nc1cnccc1N1CCN(CC(F)(F)F)CC1` [I-N-67, 2-amino-6-chloro-N-(4-(4-(2,2,2-trifluoroethyl)piperazin-1-yl)pyridin-3-yl)pyrazolo[1,5-a]pyrimidine-3-carboxamide]: the “Cisplatin Sensitization Assay” value is on record as “+++ (Compounds with a Cisplatin sensitization value of <0.02 μM are marked with “+++.”)”.

For the molecule `CN1CC2CC1CN2C(=O)C1CCN(c2c(F)cncc2NC(=O)c2c(N)nn3cc(F)cnc23)CC1` (stereo not shown) [I-G-53, 2-amino-6-fluoro-N-(5-fluoro-4-(4-(5-methyl-2,5-diazabicyclo[2.2.1]heptane-2-carbonyl)piperidin-1-yl)pyridin-3-yl)pyrazolo[1,5-a]pyrimidine-3-carboxamide], the “Cisplatin Sensitization Assay” value was “+++ (Compounds with a Cisplatin sensitization value of <0.02 μM are marked with “+++.”)”.

Turning to `Nc1nn2cc(F)cnc2c1C(=O)Nc1cncc(F)c1N1CCC(C(=O)N2CCN(C3COC3)CC2)CC1` [I-G-32, 2-amino-6-fluoro-N-[5-fluoro-4-[4-[4-(oxetan-3-yl)piperazine-1-carbonyl]-1-piperidyl]-3-pyridyl]pyrazolo[1,5-a]pyrimidine-3-carboxamide], the “Cisplatin Sensitization Assay” value is given as “+++ (Compounds with a Cisplatin sensitization value of <0.02 μM are marked with “+++.”)”.

Take `CN1CCN(C(=O)C2(C#N)CCN(c3c(F)cncc3NC(=O)c3c(N)nn4cc(F)cnc34)CC2)CC1` [I-G-25, 2-amino-N-(4-(4-cyano-4-(4-methylpiperazine-1-carbonyl)piperidin-1-yl)-5-fluoropyridin-3-yl)-6-fluoropyrazolo[1,5-a]pyrimidine-3-carboxamide]: the “Cisplatin Sensitization Assay” value is on record as “+++ (Compounds with a Cisplatin sensitization value of <0.02 μM are marked with “+++.”)”.

On to `Nc1nn2cc(F)cnc2c1C(=O)Nc1cnccc1N1CCC(C(=O)N2CCOCC2)CC1` [I-G-85, 2-amino-6-fluoro-N-(4-(4-(morpholine-4-carbonyl)piperidin-1-yl)pyridin-3-yl)pyrazolo[1,5-a]pyrimidine-3-carboxamide], for which the “Cisplatin Sensitization Assay” value is given as “+++ (Compounds with a Cisplatin sensitization value of <0.02 μM are marked with “+++.”)”.

For the molecule `Nc1nn2cc(Cl)cnc2c1C(=O)Nc1cnccc1N1CCn2cncc2C1` [I-N-75, 2-amino-6-chloro-N-(4-(5,6-dihydroimidazo[1,5-a]pyrazin-7(8H)-yl)pyridin-3-yl)pyrazolo[1,5-a]pyrimidine-3-carboxamide], the “Cisplatin Sensitization Assay” value was “+++ (Compounds with a Cisplatin sensitization value of <0.02 μM are marked with “+++.”)”.

For the molecule `Nc1nn2cc(F)cnc2c1C(=O)Nc1cncc(F)c1N1CCC(c2nccs2)CC1` [I-N-184, 2-amino-6-fluoro-N-(5-fluoro-4-(4-(thiazol-2-yl)piperidin-1-yl)pyridin-3-yl)pyrazolo[1,5-a]pyrimidine-3-carboxamide], the “Cisplatin Sensitization Assay” value is “++ (Compounds with a Cisplatin sensitization value >0.02 μM but <0.2 μM are marked with “++.”)”.

For the molecule `CN1CC(OC2CCN(c3ccncc3NC(=O)c3c(N)nn4cc(F)cnc34)CC2)C1` [I-N-164, 2-amino-6-fluoro-N-(4-(4-((1-methylazetidin-3-yl)oxy)piperidin-1-yl)pyridin-3-yl)pyrazolo[1,5-a]pyrimidine-3-carboxamide], the “Cisplatin Sensitization Assay” value is recorded as “+++ (Compounds with a Cisplatin sensitization value of <0.02 μM are marked with “+++.”)”.

In the case of `COCC1CN(C(=O)C2CCN(c3c(F)cncc3NC(=O)c3c(N)nn4cc(F)cnc34)CC2)C1` [I-G-98, 2-amino-6-fluoro-N-(5-fluoro-4-(4-(3-(methoxymethyl)azetidine-1-carbonyl)piperidin-1-yl)pyridin-3-yl)pyrazolo[1,5-a]pyrimidine-3-carboxamide], the “Cisplatin Sensitization Assay” value is on record as “+++ (Compounds with a Cisplatin sensitization value of <0.02 μM are marked with “+++.”)”.

As for `Nc1nn2cc(F)cnc2c1C(=O)Nc1cnccc1-c1ccc(C(=O)N2CCN3CCC2CC3)cc1F` [I-C-50, N-(4-(4-(1,4-diazabicyclo[3.2.2]nonane-4-carbonyl)-2-fluorophenyl)pyridin-3-yl)-2-amino-6-fluoropyrazolo[1,5-a]pyrimidine-3-carboxamide], the “Cisplatin Sensitization Assay” value is reported as “+++ (Compounds with a Cisplatin sensitization value of <0.02 μM are marked with “+++.”)”.

With `N#CCc1cnc2c(C(=O)Nc3cnccc3OC3CCCCC3)c(N)nn2c1` [I-O-39, 2-amino-6-(cyanomethyl)-N-(4-(cyclohexyloxy)pyridin-3-yl)pyrazolo[1,5-a]pyrimidine-3-carboxamide], the “Cisplatin Sensitization Assay” value is reported as “+++ (Compounds with a Cisplatin sensitization value of <0.02 μM are marked with “+++.”)”.

With `CC(C)N1CCN(c2ccncc2NC(=O)c2c(N)nn3cc(F)cnc23)CC1` [I-N-4, 2-amino-6-fluoro-N-(4-(4-isopropylpiperazin-1-yl)pyridin-3-yl)pyrazolo[1,5-a]pyrimidine-3-carboxamide], the “Cisplatin Sensitization Assay” value was “+++ (Compounds with a Cisplatin sensitization value of <0.02 μM are marked with “+++.”)”.

In the case of `CN(C)CCc1cnn(-c2ccncc2NC(=O)c2c(N)nn3cc(F)cnc23)c1` [I-N-9, 2-amino-N-(4-(4-(2-(dimethylamino)ethyl)-1H-pyrazol-1-yl)pyridin-3-yl)-6-fluoropyrazolo[1,5-a]pyrimidine-3-carboxamide], the “Cisplatin Sensitization Assay” value was “+ (Compounds with a Cisplatin sensitization value >0.2 μM but <5 μM are marked with “+.”)”.

In the case of `Cc1nonc1N1CCN(c2ccncc2NC(=O)c2c(N)nn3cc(F)cnc23)CC1` [I-N-260, 2-amino-6-fluoro-N-(4-(4-(4-methyl-1,2,5-oxadiazol-3-yl)piperazin-1-yl)pyridin-3-yl)pyrazolo[1,5-a]pyrimidine-3-carboxamide], the “Cisplatin Sensitization Assay” value was “+++ (Compounds with a Cisplatin sensitization value of <0.02 μM are marked with “+++.”)”.

On to `CN1CCN(C2CCN(c3c(F)cncc3NC(=O)c3c(N)nn4cc(F)cnc34)CC2)C(=O)C1` [I-N-151, 2-amino-6-fluoro-N-(5-fluoro-4-(4-(4-methyl-2-oxopiperazin-1-yl)piperidin-1-yl)pyridin-3-yl)pyrazolo[1,5-a]pyrimidine-3-carboxamide], for which the “Cisplatin Sensitization Assay” value is listed as “+ (Compounds with a Cisplatin sensitization value >0.2 μM but <5 μM are marked with “+.”)”.

As to `CN1CCN(C(=O)c2ccc(-c3ccncc3NC(=O)c3c(N)nn4cc(F)cnc34)cc2)CC1` [I-C-25, 2-amino-6-fluoro-N-(4-(4-(4-methylpiperazine-1-carbonyl)phenyl)pyridin-3-yl)pyrazolo[1,5-a]pyrimidine-3-carboxamide], the “Cisplatin Sensitization Assay” value is given as “+++ (Compounds with a Cisplatin sensitization value of <0.02 μM are marked with “+++.”)”.

For `CC(C)N1CCC(C(=O)N2CCN(c3c(F)cncc3NC(=O)c3c(N)nn4cc(F)cnc34)CC2)C1` (stereo not shown) [I-N-206, 2-amino-6-fluoro-N-(5-fluoro-4-(4-(1-isopropylpyrrolidine-3-carbonyl)piperazin-1-yl)pyridin-3-yl)pyrazolo[1,5-a]pyrimidine-3-carboxamide], the “Cisplatin Sensitization Assay” value is given as “+++ (Compounds with a Cisplatin sensitization value of <0.02 μM are marked with “+++.”)”.
